# Results published in PubChem BioAssay (NCI).
#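 Assay format: 96-well plates, 48-hour exposure. GI50 marks 50% less growth. TGI: concentration producing complete growth inhibition.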
# Tests used:
# Assay in all cases: NCI tumour cell line growth inhibition, 48 h
# [1] = test system: SR leukemia
# [2] = test system: HL-60(TB) leukemia
# [3] = test system: MOLT-4 leukemia
# [4] = test system: SN12C renal
# [5] = test system: K-562 leukemia
# [6] = test system: NCI-H460 lung
# [7] = test system: RPMI-8226 leukemia
# [8] = test system: SK-OV-3 ovarian
# [9] = test system: U251 CNS
# [10] = test system: 786-0 renal
Structure (SMILES),GI50 [1] [µM],TGI [1] [µM],GI50 [2] [µM],TGI [2] [µM],GI50 [3] [µM],TGI [3] [µM],GI50 [4] [µM],TGI [4] [µM],GI50 [5] [µM],TGI [5] [µM],GI50 [6] [µM],TGI [6] [µM],GI50 [7] [µM],TGI [7] [µM],GI50 [8] [µM],TGI [8] [µM],GI50 [9] [µM],TGI [9] [µM],GI50 [10] [µM],TGI [10] [µM]
O=C1Cc2cc(CCn3ccnc3)c(Cl)cc2N1,9.24,> 100,63.2,> 100,56.7,> 100,16.5,> 100,8.26,> 100,16.1,> 100,46.2,> 100,18.1,> 100,8.24,> 100,> 100,> 100
O=S(=O)(NCCNc1nccc(-c2c(-c3cccc(O)c3)nc3sccn23)n1)c1ccc(F)cc1,2.65,57.3,,,5.53,32,4.26,44.9,3.88,> 100,4.2,22.8,4.26,22.7,5.37,59,7.48,49.3,5.35,41.8
CCCNc1nc(N(C)O)nc(N(C)O)n1,0.149,> 30.1,0.59,4.56,0.194,> 28,4.27,> 100,2.24,> 100,0.563,> 56.8,0.689,4.46,3.46,> 100,0.955,> 100,2.53,> 43.4
CCOc1ccc(Cc2nccc3cc(OCC)c(OCC)cc23)cc1OCC,12.6,56.2,3.17,18.2,5.83,34.2,4.08,22.3,3.54,49.9,3.2,21.8,2.01,22.4,16.3,58.2,7.73,21.9,9.57,40.4
O=[N+]([O-])c1cccc(C2SCc3nc4ccccc4n32)c1 (stereo not given),,> 100,,> 100,,> 100,,> 100,,> 100,,> 100,,,,> 100,,> 100,,> 100
C/C=C/C=N/N(c1nnc(-c2ccccc2)c(-c2ccccc2)n1)S(=O)(=O)c1ccc(C)cc1,,21.1,,6.36,,26.6,,20.7,,> 100,,28.3,,36.6,,33.8,,12.7,,19.2
O=C(c1cc(=O)c2ccc(O)cc2o1)c1ccc(Cl)cc1Cl,,,,> 100,,22.3,,72.1,,> 35.5,,> 100,,> 72.7,,> 100,,> 100,,> 64.4
O=C(CC(=O)N1N=C(n2ccc3ccccc32)CC1c1ccccc1)Nc1cccc(Cl)c1 (stereo not given),,,,> 100,,> 100,,> 100,,> 100,,> 100,,> 100,,> 100,,> 100,,> 100
CCCCCCCCCCCCCCCCOC(=O)C(C(=O)OCCCCCCCCCCCCCCCC)[N+](C)(C)CCOC(C)=O,,,,6.12,,,,35.3,,41,,80.6,,,,34.8,,27,,32.7
O=C(Nc1cccc(Cl)c1)Nc1cccc(Cl)c1,,,5.02,> 100,23.8,> 100,> 100,> 100,3.23,> 100,,,,,> 100,> 100,7.05,> 100,36.7,> 100
CC(C)c1cc(C(C)C)c(S(=O)(=O)NN)c(C(C)C)c1,,> 100,,,,,,> 100,,> 100,,> 100,,> 100,,,,> 100,,> 100
C=C1CC[C@@H]2C(C)(C)[C@@H](O)CC[C@@]2(C)[C@@H]1COc1ccc2ccc(=O)oc2c1,19.4,83.9,,45.6,7.22,35.6,14.1,30.8,6.43,> 100,14.9,32.4,8.75,65.7,,,9.62,24.8,14.8,30.6
COc1ccc(/C=C/C(=O)c2sc(N)nc2C)cc1,,,,> 100,,> 100,,> 100,,> 100,,> 100,,> 100,,> 100,,> 100,,> 100
Nc1nc(-c2ccccc2)c(-c2ccccc2)c(-c2nc(N)nc(-c3ccccc3)c2-c2ccccc2)n1,,> 100,,> 100,,> 100,,> 100,,> 100,,> 100,,,,> 100,,> 100,,> 100
Clc1ccc(-c2nc3c(-c4ccc(Cl)cc4)nc(-c4ccccc4)cn3c2-c2ccc(Cl)cc2)cc1,,,> 50,> 50,> 50,> 50,> 50,> 50,> 50,> 50,> 50,> 50,> 50,> 50,24.2,> 50,45.2,> 50,46.5,> 50
NC(=O)c1ccccc1NC(=O)C(=O)C(C(=O)c1ccc2ccccc2c1)C1OC(=O)c2ccccc21 (stereo not given),,,,,,23.7,,37.1,,83.9,,> 100,,48.1,,75.2,,25.2,,19.9
COC(=O)CCC(NC(=S)N/N=C(\C)c1ccccn1)C(=O)OC (stereo not given),,,,53.1,,> 100,,> 100,,> 100,,> 100,,> 100,,> 100,,> 100,,> 100
COc1ccc(Nc2c3ccccc3nc3c2c2ccccc2n3C)cc1,2.75,14,3.99,45.6,1.88,5.36,58.6,> 100,5.57,> 100,5.2,> 100,3.77,24.7,,,36.5,> 100,40.6,> 100
NC(=S)N/N=C(/CC(=O)c1ccc([N+](=O)[O-])cc1)C(=O)Nc1ncc([N+](=O)[O-])s1,,,,> 100,,> 100,,> 100,,,,> 100,,> 100,,,,> 100,,> 100

Structure (SMILES),GI50 [1] [µM],TGI [1] [µM],GI50 [2] [µM],TGI [2] [µM],GI50 [3] [µM],TGI [3] [µM],GI50 [4] [µM],TGI [4] [µM],GI50 [5] [µM],TGI [5] [µM],GI50 [6] [µM],TGI [6] [µM],GI50 [7] [µM],TGI [7] [µM],GI50 [8] [µM],TGI [8] [µM],GI50 [9] [µM],TGI [9] [µM],GI50 [10] [µM],TGI [10] [µM]
CC(=O)OC1(C#N)CC2OC1C1C2N1C(=O)c1ccccc1 (stereo not given),,,,> 100,,> 100,,> 100,,> 100,,> 100,,> 100,,> 100,,> 100,,> 100
COC(=O)/C(C#N)=C\N1CCN(C(=O)c2ccco2)C1=S,,,6.94,> 100,7.41,> 100,3.69,14.4,3.68,> 100,2.47,4.95,3.3,62.4,28.2,> 100,6.78,37,6.25,21.7
C/C(CN1C(=O)c2ccccc2C1=O)=N\NS(=O)(=O)c1ccccc1,,,,> 100,,> 100,,> 100,,> 100,,> 100,,> 100,,> 100,,> 100,,> 100
CN(C)CCNC(=O)c1cccc2nc3ccc4ccccc4c3nc12,,,,0.494,,0.124,,0.342,,25.6,,0.135,,,,2.06,,0.665,,1.99
C/C(=N\NC(=O)CC(=O)Nc1ccc(C)cc1)c1cc2ccccc2oc1=O,,,,> 100,,> 100,,> 100,,> 100,,> 100,,> 100,,> 100,,> 100,,> 100
CCC(=O)C1=C(OC(C)=O)C2Cc3c(n(C)c4ccccc34)C(C1)N2C (stereo not given),,> 100,,53,,> 100,,61.5,,> 100,,> 100,,,,> 100,,> 100,,66.4
Cc1ccc(-n2c3c(c4c(CN5CCCCC5)c(O)ccc42)CCc2ccccc2C3=O)cc1,,,0.477,> 100,> 100,> 100,> 100,> 100,32.2,> 100,> 100,> 100,> 100,> 100,> 100,> 100,47.9,> 100,33.5,> 100
Cc1ccc2nc3c(Cl)cc(=O)cc-3sc2c1,,,,20.5,,41.5,,,,56.1,,83.5,,,,,,45.5,,35.7
CC1=C(C(=O)Nc2cccc(C(F)(F)F)c2)C(c2ccc(O)cc2)C(C(=O)Nc2cccc(C(F)(F)F)c2)=C(C)N1,,,,38.7,,47,,,,44.7,,43.1,,41.2,,83.4,,43.6,,35.8
COC(=O)[C@]12CC[C@@H](C)[C@H](C)[C@@H]1C1=CC[C@@H]3[C@@]4(C)C[C@@H](OC(=O)c5ccco5)[C@H](O)[C@@](C)(CO)[C@@H]4[C@H](O)C[C@@]3(C)[C@]1(C)CC2,1.99,4.68,2.08,5.46,2.04,4.44,,,2.35,5.42,1.97,3.87,2.55,7.56,3.95,11.9,1.97,4.21,2.1,4.46
Cn1cc(-c2csc(-c3c[nH]c4ncccc34)n2)c2cc(Br)cnc21,,,> 100,> 100,> 100,> 100,,,8.76,> 100,2.98,> 100,> 100,> 100,3.25,> 100,2.7,> 100,9.65,> 100
Nc1nnc2nc(CC(=O)/C=C/c3ccccc3)c(=O)[nH]n12,,,,> 100,,> 100,,> 100,,> 100,,> 100,,> 100,,> 100,,> 100,,> 100
CN(C)c1cccc(-c2cc(=O)c3ccccc3[nH]2)c1,,> 100,,74.6,,> 100,,> 100,,,,> 100,,> 100,,> 100,,> 100,,> 100
COc1ccc(/C=C2\N=C(c3ccccc3)OC2=O)c(OCc2ccccc2)c1,,> 100,,> 100,,80.6,,> 100,,> 100,,> 100,,> 100,,,,,,34.8
CC(=O)CC(=O)CCCC(=O)Nc1ccc(Cl)cc1C,,,,> 100,,> 100,,> 100,,> 100,,> 100,,> 100,,> 100,,> 100,,> 100
O=C(Oc1cccnc1)c1ccccc1Nc1ccnc(C(F)(F)F)c1,,,43.3,> 100,0.0499,> 100,0.17,> 94.8,0.0426,> 100,0.342,> 35,0.0563,7.22,0.25,> 100,0.33,> 96.2,0.158,4.64
CCOc1ccccc1NC(=O)C(=O)CC(=O)C1=C(C)Nc2ccccc2S1,,,,> 36.2,,> 69.5,,> 100,,> 76.4,,> 100,,> 100,,> 100,,> 100,,> 100
Cc1cc2c3ccccc3n(C)c2c2c1C(=O)c1ccccc1C2=O,,22.5,,27.7,,27.4,,41.7,,55.1,,,,,,61.7,,,,34.3
